{"source": "patent US4461900A", "about": "“4,5-Dihydrothiadiazole 1,1-dioxide derivatives” (American Home Products Corporation, priority 1983, dated 1984)", "key": {"H2 receptor": {"system": "H2 receptor", "conditions": "cited from earlier work"}, "[1]": {"system": "histamine induced gastric acid secretion", "conditions": "dog; cited from earlier work"}, "H2 -receptor": {"molecular_target": "T1, H2 -receptor (Cavia porcellus, UniProt P47747)", "T1 construct": "The right atria of Males Charles River guinea-pigs; from tissue; host or cells: isolated right atria of male Charles River guinea-pigs", "T1 sequence (P47747 whole entry)": "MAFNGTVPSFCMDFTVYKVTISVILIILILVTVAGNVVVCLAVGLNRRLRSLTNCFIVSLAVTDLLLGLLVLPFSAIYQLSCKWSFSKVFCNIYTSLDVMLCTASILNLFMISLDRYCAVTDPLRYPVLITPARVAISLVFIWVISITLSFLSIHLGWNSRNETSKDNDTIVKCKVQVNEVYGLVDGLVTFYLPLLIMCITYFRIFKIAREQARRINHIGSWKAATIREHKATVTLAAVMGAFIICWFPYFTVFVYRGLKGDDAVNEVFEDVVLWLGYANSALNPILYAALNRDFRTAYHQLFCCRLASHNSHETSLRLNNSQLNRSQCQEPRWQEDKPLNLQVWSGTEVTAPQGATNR", "experiment": "In vitro H2 antagonism: histamine-induced heart rate increase in isolated guinea-pig right atria", "assay_type": "cell-based", "conditions": "at 10^-4, 10^-5 M", "procedure": "The right atria of Males Charles River guinea-pigs (250-325 gm), trimmed of extraneous tissues is suspended in a bath at a 1.0 g tension load between an anchor and a Grass Model FT03 force displacement transducer which is coupled to a Beckman Dynograph recorder. The Krebs-Henseleit bath is oxygenated (95% O2 -5% CO2) and maintained at 32° C. After establishing a regular pattern of spontaneous activity over one hour, cumulative doses of histamine are introduced into the bath and the maximal heart rate increase recorded after each addition to establish a response control.\nThen the tissue is washed, returned to rest rates and the compound being treated is introduced into the bath. Thirty minutes later the histamine dose-response study is repeated. The response to histamine in the presence of an antagonist differs from that obtained in the absence of antagonist and the log of the ratio of differences is platted against the log concentration of antagonist for each of several concentrations from which the apparent dissociation constant (pA2) is calculated."}}}
{"smiles": "C#CCNC(=NC#N)NCCSCc1nc[nH]c1C", "note": "[Etintidine]", "values": [{"measurement": "Potency as H2 -receptor antagonist relative to cimetidine", "setting": "H2 receptor", "value": "more potent than cimetidine"}]}
{"smiles": "CNC(=C[N+](=O)[O-])NCCSCc1ccc(CN(C)C)o1", "note": "[Ranitidine]", "values": [{"measurement": "Potency relative to cimetidine in blocking histamine induced gastric acid secretion", "setting": "[1]", "value": "about 5 times"}]}
{"smiles": "CNC(=NC#N)NCCSCc1csc(N=C(N)N)n1", "note": "[Tiotidine]", "values": [{"measurement": "Potency relative to cimetidine in H2 receptor antagonism", "setting": "H2 receptor; both in vitro and in vivo studies", "value": "at least ten"}]}
{"smiles": "CN(C)Cc1ccc(CSCCNC2=NS(=O)(=O)CN2)o1", "note": "[Example 1, N-[2-[[[5-[(DIMETHYLAMINO)METHYL]-2-FURANYL]METHYL]THIO]ETHYL]-4,5-DIHYDRO- 1,2,4-THIADIAZOL-3-AMINE 1,1-DIOXIDE]", "values": [{"measurement": "H2 antagonism (activity at stated concentrations)", "setting": "H2 -receptor", "value": "active"}]}
